Literature values in patent publication US5516904A, “Acetylenes disubstituted with a heteroaromatic group and a substituted phenyl group having retinoid like activity” (Allergan, Inc., priority 1995, dated 1996).

Test system: ornithine decarboxylase (ODC)
Conditions: result in words; literature background

CC1=C(/C=C/C(C)=C/C=C/C(C)=C/C(=O)O)C(C)(C)CCC1 [Retionic acid, retinoic acid]
inhibition of induction of ODC activity by TPA: inhibits
